From ChEMBL document CHEMBL1139660, “Imidazo[1,2-b][1,2,4]triazines as alpha2/alpha3 subtype selective GABA A agonists for the treatment of anxiety” (Bioorg Med Chem Lett, 2006)

Assays:
[1] = target: T1, GABA-A receptor; alpha-1/beta-3/gamma-2 (Homo sapiens) (UniProt P14867+P18507+P28472); experiment: Efficacy against recombinant human GABA-Aalpha1 receptor plus beta-3-gamma-2 expressed in L(tk-) cells by modulation of chloride ion flux relative to chlordiazepoxide; format: cell-based
[2] = target: T2, GABA-A receptor; alpha-5/beta-3/gamma-2 (Homo sapiens, UniProt P18507+P28472+P31644); experiment: Displacement of [3H]Ro 15-1788 from recombinant human GABA-Aalpha5 receptor plus beta-3-gamma-2 expressed in L(tk-) cells; format: cell-based
T2 sequence (P18507 whole entry): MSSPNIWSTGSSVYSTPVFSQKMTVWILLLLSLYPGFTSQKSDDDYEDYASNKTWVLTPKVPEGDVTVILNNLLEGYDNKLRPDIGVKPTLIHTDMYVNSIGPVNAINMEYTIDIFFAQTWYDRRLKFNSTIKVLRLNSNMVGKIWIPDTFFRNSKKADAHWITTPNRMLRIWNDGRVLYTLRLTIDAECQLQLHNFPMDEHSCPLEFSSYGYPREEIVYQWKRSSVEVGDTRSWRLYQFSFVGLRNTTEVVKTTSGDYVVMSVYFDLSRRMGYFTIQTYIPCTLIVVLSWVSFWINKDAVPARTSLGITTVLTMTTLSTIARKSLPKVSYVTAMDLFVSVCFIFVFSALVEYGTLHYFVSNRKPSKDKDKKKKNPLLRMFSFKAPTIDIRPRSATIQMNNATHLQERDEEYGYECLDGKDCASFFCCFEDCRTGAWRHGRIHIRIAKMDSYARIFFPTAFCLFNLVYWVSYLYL
T2 sequence (P28472 whole entry): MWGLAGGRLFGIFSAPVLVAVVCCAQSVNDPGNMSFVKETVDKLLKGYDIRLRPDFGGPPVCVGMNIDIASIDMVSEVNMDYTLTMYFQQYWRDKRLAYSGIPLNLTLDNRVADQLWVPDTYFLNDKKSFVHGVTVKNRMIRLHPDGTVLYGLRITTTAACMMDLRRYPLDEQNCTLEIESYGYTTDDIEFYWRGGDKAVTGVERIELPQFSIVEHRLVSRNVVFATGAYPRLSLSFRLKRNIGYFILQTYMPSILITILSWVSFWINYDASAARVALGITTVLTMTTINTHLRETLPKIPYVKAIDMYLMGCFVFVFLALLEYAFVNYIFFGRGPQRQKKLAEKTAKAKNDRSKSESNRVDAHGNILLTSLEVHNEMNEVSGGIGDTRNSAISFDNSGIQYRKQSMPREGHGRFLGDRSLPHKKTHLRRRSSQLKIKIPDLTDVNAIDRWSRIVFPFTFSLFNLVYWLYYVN
T2 sequence (P31644 whole entry): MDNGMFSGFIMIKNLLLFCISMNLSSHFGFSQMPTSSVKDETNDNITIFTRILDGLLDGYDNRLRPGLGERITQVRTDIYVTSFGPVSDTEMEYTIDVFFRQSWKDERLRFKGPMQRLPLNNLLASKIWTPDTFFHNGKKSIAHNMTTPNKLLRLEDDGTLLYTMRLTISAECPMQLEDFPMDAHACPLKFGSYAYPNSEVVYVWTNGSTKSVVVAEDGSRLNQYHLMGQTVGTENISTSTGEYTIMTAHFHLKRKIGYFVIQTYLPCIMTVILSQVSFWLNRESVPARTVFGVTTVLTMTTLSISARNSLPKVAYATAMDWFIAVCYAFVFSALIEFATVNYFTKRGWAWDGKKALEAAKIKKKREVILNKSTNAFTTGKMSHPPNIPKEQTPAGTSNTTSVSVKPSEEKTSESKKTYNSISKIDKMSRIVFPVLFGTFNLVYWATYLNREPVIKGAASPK

[3] = target: T3, GABA-A receptor; alpha-1/beta-3/gamma-2 (Homo sapiens, UniProt P14867+P18507+P28472); experiment: Displacement of [3H]Ro 15-1788 from recombinant human GABA-Aalpha1 receptor plus beta3gamma2 expressed in mouse L(tk-) cells; format: cell-based
T3 sequence (P14867 whole entry): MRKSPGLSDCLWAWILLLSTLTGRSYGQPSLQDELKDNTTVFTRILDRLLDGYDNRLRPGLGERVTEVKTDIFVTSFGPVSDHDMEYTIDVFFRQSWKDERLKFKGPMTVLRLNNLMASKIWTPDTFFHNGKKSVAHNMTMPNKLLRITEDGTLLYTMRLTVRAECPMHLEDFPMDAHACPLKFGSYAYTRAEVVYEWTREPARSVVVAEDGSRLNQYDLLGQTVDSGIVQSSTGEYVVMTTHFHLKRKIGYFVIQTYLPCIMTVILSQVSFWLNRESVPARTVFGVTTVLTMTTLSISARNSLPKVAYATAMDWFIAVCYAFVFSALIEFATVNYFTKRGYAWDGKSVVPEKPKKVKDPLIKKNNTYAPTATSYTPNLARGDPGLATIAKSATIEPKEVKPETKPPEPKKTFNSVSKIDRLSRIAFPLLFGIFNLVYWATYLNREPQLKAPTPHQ
T3 sequence (P18507 whole entry): T2 sequence (P18507 whole entry)
T3 sequence (P28472 whole entry): T2 sequence (P28472 whole entry)

[4] = target: T4, GABA-A receptor; alpha-3/beta-3/gamma-2 (Homo sapiens, UniProt P18507+P28472+P34903); experiment: Displacement of [3H]Ro 15-1788 from recombinant human GABA-Aalpha3 receptor plus beta-3-gamma-2 expressed in L(tk-) cells; format: cell-based
T4 sequence (P18507 whole entry): T2 sequence (P18507 whole entry)
T4 sequence (P28472 whole entry): T2 sequence (P28472 whole entry)
T4 sequence (P34903 whole entry): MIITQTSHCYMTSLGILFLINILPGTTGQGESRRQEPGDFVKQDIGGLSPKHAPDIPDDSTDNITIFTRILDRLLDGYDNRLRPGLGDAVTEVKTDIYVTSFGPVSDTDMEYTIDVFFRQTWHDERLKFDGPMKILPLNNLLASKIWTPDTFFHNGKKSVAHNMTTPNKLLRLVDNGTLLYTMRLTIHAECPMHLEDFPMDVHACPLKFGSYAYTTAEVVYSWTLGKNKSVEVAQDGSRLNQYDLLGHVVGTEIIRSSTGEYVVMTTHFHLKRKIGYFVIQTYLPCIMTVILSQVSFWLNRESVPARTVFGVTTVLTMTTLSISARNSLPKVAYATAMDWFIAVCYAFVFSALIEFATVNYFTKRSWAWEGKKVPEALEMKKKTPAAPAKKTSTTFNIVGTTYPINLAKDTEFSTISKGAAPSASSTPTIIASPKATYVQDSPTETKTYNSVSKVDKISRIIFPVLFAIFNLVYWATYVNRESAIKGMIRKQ

[5] = target: T5, GABA-A receptor; alpha-3/beta-3/gamma-2 (Homo sapiens) (UniProt P18507+P28472+P34903); experiment: Efficacy against recombinant human GABA-Aalpha3 receptor plus beta-3-gamma-2 expressed in L(tk-) cells by modulation of chloride ion flux relative to chlordiazepoxide; format: functional, cell-based
[6] = Half life in Beagle dog at 1 mg/kg, iv or 1 mg/kg, po; format: ADME, organism-based, Canis lupus familiaris; settings: in vivo
[7] = target: T1, GABA-A receptor; alpha-1/beta-3/gamma-2 (Homo sapiens); experiment: Efficacy against recombinant human GABA-Aalpha1 receptor plus beta-3-gamma-2 expressed in L(tk-) cells by whole cell patch clamp method; format: functional, cell-based
[8] = Volume of distribution in Beagle dog at 1 mg/kg, iv or 1 mg/kg, po; format: ADME, organism-based, Canis lupus familiaris; settings: in vivo, read-out: Vdss
[9] = Plasma clearance in Beagle dog at 1 mg/kg, iv or 1 mg/kg, po; format: ADME, organism-based, Canis lupus familiaris
[10] = Volume of distribution in Sprague-Dawley rat at 1 mg/kg, iv or 1 mg/kg, po; format: ADME, organism-based; settings: in vivo, read-out: Vdss
[11] = target: T5, GABA-A receptor; alpha-3/beta-3/gamma-2 (Homo sapiens); experiment: Efficacy against recombinant human GABA-Aalpha3 receptor plus beta-3-gamma-2 expressed in L(tk-) cells by whole cell patch clamp method relative to chlordiazepoxide; format: functional, cell-based
[12] = Oral bioavailability in Beagle dog at 1 mg/kg, iv or 1 mg/kg, po; format: ADME, organism-based, Canis lupus familiaris; settings: in vivo
Rattus norvegicus = experiment: Plasma clearance in Sprague-Dawley rat at 1 mg/kg, iv or 1 mg/kg, po; format: organism-based
[13] = target: T6, GABA-A receptor; alpha-2/beta-3/gamma-2 (Homo sapiens, UniProt P18507+P28472+P47869); experiment: Displacement of [3H]Ro 15-1788 from recombinant human GABA-Aalpha2 receptor plus beta-3-gamma-2 expressed in mouse L(tk-) cells; format: cell-based
T6 sequence (P18507 whole entry): T2 sequence (P18507 whole entry)
T6 sequence (P28472 whole entry): T2 sequence (P28472 whole entry)
T6 sequence (P47869 whole entry): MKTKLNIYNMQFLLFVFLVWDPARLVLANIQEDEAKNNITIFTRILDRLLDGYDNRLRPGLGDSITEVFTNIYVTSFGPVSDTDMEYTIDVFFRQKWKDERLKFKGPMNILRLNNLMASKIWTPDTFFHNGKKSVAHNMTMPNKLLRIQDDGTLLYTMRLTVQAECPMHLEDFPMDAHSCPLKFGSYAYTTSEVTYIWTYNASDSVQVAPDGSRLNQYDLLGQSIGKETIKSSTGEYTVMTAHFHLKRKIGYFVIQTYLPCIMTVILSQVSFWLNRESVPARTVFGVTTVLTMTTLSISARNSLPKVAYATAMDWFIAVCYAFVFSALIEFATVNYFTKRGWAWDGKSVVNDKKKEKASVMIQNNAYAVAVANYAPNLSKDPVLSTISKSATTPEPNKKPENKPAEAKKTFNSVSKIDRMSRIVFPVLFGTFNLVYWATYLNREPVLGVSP

[14] = target: GABA-A receptor; alpha-5/beta-3/gamma-2 (Homo sapiens) (UniProt P18507+P28472+P31644); experiment: Efficacy against recombinant human GABA-Aalpha5 receptor plus beta3gamma2 expressed in L(tk-) cells by whole cell patch clamp method relative to chlordiazepoxide; format: functional, cell-based
[15] = target: GABA-A receptor; alpha-2/beta-3/gamma-2 (Homo sapiens) (UniProt P18507+P28472+P47869); experiment: Efficacy against recombinant human GABA-Aalpha2 receptor plus beta-3-gamma-2 expressed in L(tk-) cells by whole cell patch clamp method relative to chlordiazepoxide; format: functional, cell-based
[16] = Half life in Sprague-Dawley rat at 1 mg/kg, iv or 1 mg/kg, po; format: ADME, organism-based; settings: in vivo
[17] = Oral bioavailability in Sprague-Dawley rat at 1 mg/kg, iv or 1 mg/kg, po; format: ADME, organism-based; settings: in vivo

SMILES	Efficacy [1]	Ki [2] [nM]	Ki [3] [nM]	Ki [4] [nM]	Efficacy [5]	half-life [6] [h]	Efficacy [7]	Vd [8] [L/kg]	clearance [9] [mL/min/kg]	Vd [10] [L/kg]	Efficacy [11]	bioavailability [12] [%]	CL (mL.min-1.kg-1) (Rattus norvegicus)	Ki [13] [nM]	Efficacy [14]	Efficacy [15]	half-life [16] [h]	bioavailability [17] [%]
CC(C)(O)c1ccn2c(-c3ccc(F)c(-c4ccncc4C#N)c3)cnc2n1	0.3	0.14	0.6	0.28	0.59	–	–	–	–	–	–	–	–	–	–	–	–	–
CC(C)(O)c1ccn2c(-c3ccc(F)c(-c4cccnc4)c3)cnc2n1	0.06	–	–	–	0.5	1	0.05	0.6	8.1	1	0.53	46	9.1	–	–	–	–	–
CC(C)(O)c1cnn2c(-c3ccc(F)c(-c4ncncc4C#N)c3)cnc2n1	–	–	0.67	3.3	–	–	0.01	–	–	–	0.34	–	–	–	–	–	–	–
CC(C)(O)c1cnn2c(-c3ccc(F)c(-c4ccncc4)c3)cnc2n1	–	0.5	0.55	0.52	–	–	0.06	–	–	–	–	–	–	0.92	–	–	–	–
CC(C)(O)c1cnn2c(-c3ccc(F)c(-c4ncccc4C#N)c3)cnc2n1	–	9.34	1.28	9.53	–	9.7	0.01	1.5	2.2	1.7	0.69	99	2.4	8.43	0.2	0.37	7.9	102
CC(C)(O)c1cnn2c(-c3ccc(F)c(-c4ccc(F)cn4)c3)cnc2n1	–	1.24	1.45	2.77	–	–	0.15	–	–	–	0.5	–	–	2.3	–	–	–	–
CC(C)(O)c1ccn2c(-c3ccc(F)c(-c4ncccc4C#N)c3)cnc2n1	0.26	0.67	1.43	3.64	0.52	–	–	–	–	–	–	–	–	–	–	–	–	–
CC(C)(O)c1cnn2c(-c3ccc(F)c(-c4ncccc4F)c3)cnc2n1	–	1.57	2.01	3.42	–	–	0.24	–	–	–	0.52	–	–	–	–	–	–	–
CC(C)(O)c1ccn2c(-c3ccc(F)c(-c4ccncc4)c3)cnc2n1	0.18	0.31	0.68	2.25	0.47	–	0.42	–	–	–	–	–	–	–	–	–	–	–
CC(C)(O)c1cnn2c(-c3ccc(F)c(-c4cccnc4)c3)cnc2n1	–	0.5	0.81	1.63	–	–	0	–	–	–	0.24	–	–	–	–	–	–	–
CC(C)(O)c1ccn2c(-c3ccc(F)c(-c4ncc(F)cc4F)c3)cnc2n1	0.18	1.13	1.79	3.76	0.21	–	–	–	–	–	–	–	–	–	–	–	–	–
CC(C)(O)c1cnn2c(-c3ccc(F)c(-c4ccncc4C#N)c3)cnc2n1	–	0.32	0.76	1.06	–	–	0	–	–	–	0.37	–	–	1.54	0.41	0.23	–	–
CC(C)(O)c1ccn2c(-c3ccc(F)c(-c4ncccc4F)c3)cnc2n1	0.44	1.24	0.8	0.42	0.68	–	–	–	–	–	–	–	–	–	–	–	–	–
CC(C)(O)c1ccn2c(-c3ccc(F)c(-c4ccc(F)cn4)c3)cnc2n1	0.38	0.42	1.6	1.94	0.57	–	0.4	–	–	–	–	–	–	–	–	–	–	–
CC(C)(O)c1cnn2c(-c3ccc(F)c(-c4ncc(F)cc4F)c3)cnc2n1	–	2.71	0.67	4.5	–	–	0	2.3	0.5	2.2	0.5	64	1.2	3.44	0.09	0.39	22	69
